# PMC8519022, “Diarylethene‐Based Photoswitchable Inhibitors of Serine Proteases” (Angewandte Chemie (International Ed. in English), 2021)
# Like-named read-outs stand apart in the source and are kept apart here. *1 amine or outer side, *2 acyl side, *3 side chain or, on linkers, in order; H or OH if unused. Where a SMILES comes first, the peptide text is derived from it. Bridges are numbered along the chain shown (N, C = ends). Triazole bridges read from a SMILES are 1,4-linked. [ ]: non-standard residue; d: D form. X1 = Cc1sc(C(=O)[C@@H]2CCCN2[*:2])cc1C1=C(c2cc(C(=O)[*:1])sc2C)CCC1; Aha = [N-]=[N+]=NCC[C@H](N)C(=O)O; Pra = C#CC[C@H](N)C(=O)O
# Experiments:
# [1] = molecular target: T1, Bos taurus trypsin 1 (T1) (Bos taurus, UniProt P00760); assay: Trypsin inhibition, Ki by Lineweaver-Burk analysis; settings: for K i (closed) /K i (open): ratio of ring-closed to ring-open isomer, T1;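 for all read-outs here: trypsin activity followed by spectrophotometric hydrolysis kinetics of the chromogenic substrate BAPNA in Tris buffer, Ki obtained from double-reciprocal Lineweaver–Burk plots at several substrate concentrations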
# T1 sequence (P00760 24-246): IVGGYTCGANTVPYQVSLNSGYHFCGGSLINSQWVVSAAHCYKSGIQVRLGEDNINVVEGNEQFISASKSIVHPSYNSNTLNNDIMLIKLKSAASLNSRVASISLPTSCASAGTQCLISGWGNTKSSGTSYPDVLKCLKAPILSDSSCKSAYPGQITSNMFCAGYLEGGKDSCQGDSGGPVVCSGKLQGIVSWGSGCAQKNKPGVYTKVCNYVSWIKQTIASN
# Procedure: (§7) The inhibition of trypsin and α-chymotrypsin was investigated by two methods. First, the inhibition was determined at a fixed enzyme and substrate concentration, whereas the inhibitor concentration varied. By plotting the protease activity against an inhibitor’s concentration, IC50 (the half-maximal inhibitory concentration) was determined.
# (§8) Lineweaver–Burk analysis (see below), the Ki values for all peptide inhibitors were determined with high accuracy.
# (§9) All measurements were performed with p-nitroaniline-based chromogenic substrates (λabs = 405 nm) in 96-well microtiter plates using
# EpochTM 2 microplate spectrophotometer. For trypsin measurements the Tris buffer (50 mM Tris-HCl, 25 mM CaCl2, 0.005% Tween®
# For the measurements, a fresh 0.92 µM trypsin solution was prepared from the storage aliquot and kept on ice.
# A stock solution of the substrate BAPNA (Nα-Benzoyl-DL-arginine 4-nitroanilide hydrochloride) at the concentration of 50 mM in
# aqueous dimethyl sulfoxide (DMSO) (100 mg of BAPNA in 4.6 mL of DMSO:water mixture 1:1) was pre pared and stored at RT.
# peptide solutions at the concentration of 100 µM, which was further diluted to 10, 1, or 0.1 µM if required, were prepared in Milli-Q®
# For the determination of IC50, a double dilution series of inhibit ors were prepared in a 96 -well plate (12 concentrations, two repeats
# for each concentration, 200 µL of Tris buffer in each well). Subsequently, a trypsin solution (20 µL, 150 nM) was added to ea ch well
# with the tested peptide and to the control row. Soluti ons in each well were intensely mixed using a multichannel pipette (from lower
# concentration to higher). After a pre -incubation period (5 min), the substrate BAPNA was added to each well (20 µL, 25 mM).
# solutions were thoroughly mixed with the multicha nnel pipette, and the kinetics of substrate hydrolysis was recorded with an interval
# of 1 min between measurements over 20 min. The total volume in each well was 240 µL, final trypsin and BAPNA concentrations
# were 12.5 nM and 2.08 mM, respectively. The mea n values of the two repeats of the slope of absorption vs. time curves were
# calculated. The activities at different inhibitor concentrations were then calculated by taking the control curves’ slope val ues (no
# inhibitor) as the 100% enzyme activity. The inh ibition activity IC 50 against α-chymotrypsin (α-chymotrypsin from bovine pancreas
# (§10) type II) was measured in the same way except that a different substrate, Ac-EAPF-pNA (Ac-Glu-Ala-Pro-Phe-pNA), was used (20
# Inhibitory constants Ki were determined by Lineweaver-Burk (LWB) double-reciprocal analysis according to a published protocol.[S5]
# Briefly, a fresh inhibitor/enzyme mixture was prepared in a glass vial and distributed to 2x6 wells (200 µL in each well, enzyme
# concentration after dilution 12 nM). An enzyme without an inhibitor was added to the control wells. Aliquots of varying substrate stock
# solutions were added with a multichannel pipette to each well. For trypsin inhibition experiments, BAPNA (20 µL per well of 20, 22.7,
# 26, 29.8, 34, 40 mM) and for α-chymotrypsin Ac-EAPF-pNA (20 µL per well of 16, 12.48, 10, 8, 6.4, 5.44 mM) were used, respectively.
# Well contents were thoroughly mixed using a multichannel pipette, and a plate reader was used to monitor the hydrolysis kinetics
# (sampling interval of 1 min over 20 min).
# trypsin [2] = molecular target: T2, trypsin (Bos taurus, UniProt P00760); settings: for k H [M^−1 s^−1] (closed): pH 8.2
# T2 sequence (P00760 24-246): T1 sequence (P00760 24-246)
# Procedure: Analysis of the proteolytic stability
# (§11) Proteolytic stability of the peptides was characterized by determining hydrolysis rates (kH) by the action of trypsin in a 50 mM Tris–
# (§12) HCl buffer, pH 8.2, supplemented with 25 mM CaCl2 and 0.005% Tween®20 at 22°C. The peptides at a concentration of 50 μM were
# (§13) mixed with trypsin (0.5 μM) in a 2 mL total volume. At selected time intervals, 70 μL samples of the mixture were taken, quenched
# (§14) by addition 130 μL 2% aqueous formic acid, and immediately analyzed by analytical HPLC. The kH values were calculated from the
# (§15) time-dependent data assuming zero-order kinetics (zero-order kinetics applies due to the high substrate/enzyme ratio of 100 to 1).
# (§16) For the fitting the linear part of the hydrolysis curve was taken excluding the last time point in which the entire peptide inhibitor was
# (§17) analogues could hydrolyze at two positions: at the Lys (P1 position) of the inhibitory loop and after the stabilizing loop’s arginine
# (§18) residue (P4 position).[S6] The ultimate product (i.e., cleaved at both positions) had, therefore, a MALDI-TOF-MS detectable mass
# (§19) The identity of each peak was confirmed by MALDI -TOF-MS. Detection – 220 nm, hydrolysis time is indicated at each chromatogram.
# [3] = Photostationary state under UV irradiation / photoconversion; type: physicochemical; settings: deoxygenated water, 22 °C, continuous UV irradiation 320-400 nm; values with * by RP-HPLC
# Procedure: Table S3 Photostationary states (PSS) for the studied peptides in deoxygenated water at 22 °C determined as the maximal conversion of the ring-open form to
# ring-closed form under continuous UV irradiation (spectral range of 320-400 nm).
# * As was determined by RP-HPLC analysis. […]
# [4] = molecular target: T3, α-chymotrypsin from bovine pancreas type II (Bos taurus, UniProt P00766); assay: α-Chymotrypsin inhibition, Ki by Lineweaver-Burk analysis
# Procedure: as §7, §8, §9
# EpochTM 2 microplate spectrophotometer. For trypsin measurements the Tris buffer (50 mM Tris-HCl, 25 mM CaCl2, 0.005% Tween® […]
# solutions were thoroughly mixed with the multicha nnel pipette, and the kinetics of substrate hydrolysis was recorded with an interval […]
# calculated. The activities at different inhibitor concentrations were then calculated by taking the control curves’ slope val ues (no […]
# as §10
# Inhibitory constants Ki were determined by Lineweaver-Burk (LWB) double-reciprocal analysis according to a published protocol.[S5] […]
# Well contents were thoroughly mixed using a multichannel pipette, and a plate reader was used to monitor the hydrolysis kinetics […]
# [5] = molecular target: T3, α-chymotrypsin from bovine pancreas type II; assay: α-Chymotrypsin inhibition, IC50 at fixed enzyme and substrate concentration; type: biochemical; set-up: host or cells: bovine pancreas
# Excerpt: (§1) 6. Protease inhibition assays
# (§2) With the second method, using
# (§3) EpochTM 2 microplate spectrophotometer.
# (§4) deionized ultrapure water.
# (§5) concentration to higher). […] The
# (§6) inhibitor) as the 100% enzyme activity.
# trypsin [6] = molecular target: T2, trypsin; assay: Trypsin inhibition, IC50 at fixed enzyme and substrate concentration; type: biochemical
# Excerpt: as §1, §2, §3, §4, §5, §6
# other E. coli strains = other E. coli strains in MHB medium; ref S7; cited from earlier work
# trypsin [7] = molecular target: T2, trypsin; assay: Proteolytic stability: T1-induced hydrolysis rate constants (kH); settings: non-photoswitchable reference compound; peptide 50 μM, trypsin 0.5 μM, 50 mM Tris-HCl pH 8.2, 25 mM CaCl2, 0.005% Tween 20, 22°C, analytical HPLC, zero-order fit
# Procedure: Analysis of the proteolytic stability
# as §11, §12, §13, §14, §15, §16, §17, §18, §19
# [8] = Procedure: The photostability in repeated cycles of reversible photoisomerization was studied on three selected compounds (linear three-peptide […]
# samples were prepared in the same manner as for UV-Vis absorption characterization, namely at 20 mM in deoxygenated water.
# The UV irradiation was done at spectral range of 320 -400 nm, 167 mW/cm 2 for 15 s; the visible light irradiation at 570 nm, 143 mW/cm2 for 60 s (both using LUMATEC® light source).
# Figure S3. Photostability study of the three selected peptides at 20 mM in deoxygenated water at 22°C in 15 cycles of reversible photoisomerization with visible (570 nm, 143 mW/cm2 for 60 s) and UV light (320-400 nm, 167 mW/cm2 for 15 s). The left plots show absorption spectra after each 5 cycles (normalized at 575 nm for ring-closed forms). The right plots show the % of ring-closed form measured as absorbance at 575 nm.
structure (smiles),measurement,setting,value
CC[C@H](C)[C@@H]1NC(=O)[C@@H]2CCCN2C(=O)[C@@H]2CCCN2C(=O)[C@H]([C@@H](C)CC)NC(=O)[C@H](CO)NC(=O)[C@H](CCCCN)NC(=O)[C@H]([C@@H](C)O)NC(=O)[C@@H]2Cc3cn(nn3)CC[C@H](NC1=O)C(=O)N[C@@H](CCCNC(=N)N)C(=O)N[C@@H](CC(C)C)C(=O)N1CCC[C@H]1C(=O)c1cc(c(C)s1)C1=C(CCC1)c1cc(sc1C)C(=O)N[C@@H](C(C)C)C(=O)N[C@@H](Cc1ccccc1)C(=O)N2 [Peptide S11i] (VF[Pra]TKSIPPI[Aha]RL; triazole 3-11; linker N-C via X1),Ki,[1]; K i [nM] (open),1720 ± 130 nM
same,K i (closed) /K i (open),[1],3.1
same,k H (closed) /k H (open),trypsin [2],3.3
same,k H [M^−1 s^−1] (closed),trypsin [2],9.1±1×10^−2 M^−1 s^−1
same,"PSS, % (maximal conversion of ring-open to ring-closed form)",[3],80.2%
"CC[C@H](C)[C@@H]1NC(=O)[C@@H]2CCCN2C(=O)[C@@H]2CCCN2C(=O)[C@H]([C@@H](C)CC)NC(=O)[C@H](CO)NC(=O)[C@H](Cc2ccccc2)NC(=O)[C@H]([C@@H](C)O)NC(=O)[C@@H]2CSSC[C@H](NC1=O)C(=O)N[C@@H](Cc1ccccc1)C(=O)N1CCC[C@H]1C(=O)N[C@@H](CC(=O)O)C(=O)NCC(=O)N[C@@H](CCCNC(=N)N)C(=O)N2 [SFTI‐5F, reference compound] (cyclo(CFPDGRCTFSIPPI); disulfide 1-7)",Ki,[4],2.8 nM
same,IC50,"[5]; non-photoswitchable control, enzyme 12.5 nM, Ac-EAPF-pNA 1.33 mM, read-out: IC50, nM (α-chymotrypsin inhibition)",6.6 nM
CC[C@H](C)[C@@H]1NC(=O)[C@@H]2CCCN2C(=O)[C@@H]2CCCN2C(=O)[C@H]([C@@H](C)CC)NC(=O)[C@H](CO)NC(=O)[C@H](CCCCN)NC(=O)[C@H]([C@@H](C)O)NC(=O)[C@@H]2Cc3cn(nn3)CC[C@H](NC1=O)C(=O)N[C@@H](CCCNC(=N)N)C(=O)N1CCC[C@H]1C(=O)c1cc(c(C)s1)C1=C(CCC1)c1cc(sc1C)C(=O)N[C@@H](Cc1ccccc1)C(=O)N2 [Peptide S6i] (F[Pra]TKSIPPI[Aha]R; triazole 2-10; linker N-C via X1),Ki,[1]; K i [nM] (open),441 ± 43 nM
same,K i (closed) /K i (open),[1],17.5
same,k H (closed) /k H (open),trypsin [2],5.8
same,k H [M^−1 s^−1] (closed),trypsin [2],1.1±0.2×10^−1 M^−1 s^−1
same,"PSS, % (maximal conversion of ring-open to ring-closed form)",[3],39.6%
CC[C@H](C)[C@@H]1NC(=O)[C@@H]2CCCN2C(=O)[C@@H]2CCCN2C(=O)[C@H]([C@@H](C)CC)NC(=O)[C@H](CO)NC(=O)[C@H](CCCCN)NC(=O)[C@H]([C@@H](C)O)NC(=O)[C@@H]2Cc3cn(nn3)CC[C@H](NC1=O)C(=O)N[C@@H](Cc1ccccc1)C(=O)N1CCC[C@H]1C(=O)c1cc(c(C)s1)C1=C(CCC1)c1cc(sc1C)C(=O)N[C@@H](CCCNC(=N)N)C(=O)N2 [Peptide S6n] (R[Pra]TKSIPPI[Aha]F; triazole 2-10; linker N-C via X1),Ki,[1]; K i [nM] (open),135 ± 8 nM
same,K i (closed) /K i (open),[1],8.3
same,k H (closed) /k H (open),trypsin [2],3.7
same,k H [M^−1 s^−1] (closed),trypsin [2],2.5±0.8×10^−2 M^−1 s^−1
same,"PSS, % (maximal conversion of ring-open to ring-closed form)",[3],46.6%
CC[C@H](C)[C@@H]1NC(=O)[C@@H]2CCCN2C(=O)[C@@H]2CCCN2C(=O)[C@H]([C@@H](C)CC)NC(=O)[C@H](CO)NC(=O)[C@H](CCCCN)NC(=O)[C@H]([C@@H](C)O)NC(=O)[C@@H]2CSSC[C@H](NC1=O)C(=O)N[C@@H](Cc1ccccc1)C(=O)N[C@@H](CC(C)C)C(=O)N1CCC[C@H]1C(=O)c1cc(c(C)s1)C1=C(CCC1)c1cc(sc1C)C(=O)N[C@@H](C(C)C)C(=O)N[C@@H](CCCNC(=N)N)C(=O)N2 [Peptide S10n] (VRCTKSIPPICFL; disulfide 3-11; linker N-C via X1),Ki,[1]; K i [nM] (closed),181 ± 7 nM
same,Ki,[1]; K i [nM] (open),17.5 ± 0.7 nM
same,k H (closed) /k H (open),trypsin [2],15.7
same,k H [M^−1 s^−1] (closed),trypsin [2],3.6±0.3×10^−3 M^−1 s^−1
same,IC50,[5],50000 to 100000 nM
CC[C@H](C)[C@@H]1NC(=O)[C@@H]2CCCN2C(=O)[C@@H]2CCCN2C(=O)[C@H]([C@@H](C)CC)NC(=O)[C@H](CO)NC(=O)[C@H](Cc2ccccc2)NC(=O)[C@H]([C@@H](C)O)NC(=O)[C@@H]2CSSC[C@H](NC1=O)C(=O)N[C@@H](Cc1ccccc1)C(=O)N[C@@H](CC(C)C)C(=O)N1CCC[C@H]1C(=O)c1cc(c(C)s1)C1=C(CCC1)c1cc(sc1C)C(=O)N[C@@H](C(C)C)C(=O)N[C@@H](CCCNC(=N)N)C(=O)N2 [Peptide S5F] (VRCTFSIPPICFL; disulfide 3-11; linker N-C via X1),IC50,trypsin [6],50000 to 100000 nM
CC[C@H](C)[C@H](NC(=O)[C@H](CCCNC(=N)N)NC(=O)[C@H](CCCNC(=N)N)NC(=O)[C@H](Cc1ccccc1)NC(=O)[C@H](CC(C)C)NC(=O)[C@H](CCCNC(=N)N)NC(=O)[C@@H](N)CCCNC(=N)N)C(=O)N[C@@H](CC(C)C)C(=O)N[C@@H](CCCNC(=N)N)C(=O)N[C@@H](Cc1c[nH]c2ccccc12)C(=O)N[C@@H](CC(C)C)C(N)=O [BP100‐RW] (H-RRLFRRILRWL-NH2),MIC,other E. coli strains,0.2 to 0.5 µg/mL
"CC[C@H](C)[C@@H]1NC(=O)[C@@H]2CCCN2C(=O)[C@@H]2CCCN2C(=O)[C@H]([C@@H](C)CC)NC(=O)[C@H](CO)NC(=O)[C@H](CCCCN)NC(=O)[C@H]([C@@H](C)O)NC(=O)[C@@H]2CSSC[C@H](NC1=O)C(=O)N[C@@H](CCCNC(=N)N)C(=O)N1CCC[C@H]1C(=O)N[C@@H](CC(=O)O)C(=O)NCC(=O)N[C@@H](Cc1ccccc1)C(=O)N2 [SFTI‐1i, reference compound] (cyclo(CRPDGFCTKSIPPI); disulfide 1-7)",k H [M^−1 s^−1],trypsin [7],2.0±0.2×10^−5 M^−1 s^−1
same,IC50,"trypsin [6]; non-photoswitchable reference, trypsin 12.5 nM, BAPNA 2.08 mM, Tris pH 8.2, 5 min pre-incubation, read-out: IC50, nM (trypsin inhibition)",15.6 nM
CC[C@H](C)[C@@H]1NC(=O)[C@@H]2CCCN2C(=O)[C@@H]2CCCN2C(=O)[C@H]([C@@H](C)CC)NC(=O)[C@H](CO)NC(=O)[C@H](CCCCN)NC(=O)[C@H]([C@@H](C)O)NC(=O)[C@H](C)NC(=O)[C@H](CCCNC(=N)N)NC(=O)c2cc(c(C)s2)C2=C(CCC2)c2cc(sc2C)C(=O)[C@@H]2CCCN2C(=O)[C@H](Cc2ccccc2)NC(=O)[C@H](C)NC1=O [Peptide S2] (RATKSIPPIAF; linker N-C via X1),Ki,[1]; K i [nM] (closed),659 ± 33 nM
same,Ki,[1]; K i [nM] (open),203 ± 6 nM
same,degradation in repeated cycles of reversible photoisomerization,[8],less than 30%
CC[C@H](C)[C@@H]1NC(=O)[C@@H]2CCCN2C(=O)[C@@H]2CCCN2C(=O)[C@H]([C@@H](C)CC)NC(=O)[C@H](CO)NC(=O)[C@H](CCCCN)NC(=O)[C@H]([C@@H](C)O)NC(=O)[C@@H]2CSSC[C@H](NC1=O)C(=O)N[C@@H](CCCNC(=N)N)C(=O)N[C@@H](CC(C)C)C(=O)N1CCC[C@H]1C(=O)c1cc(c(C)s1)C1=C(CCC1)c1cc(sc1C)C(=O)N[C@@H](C(C)C)C(=O)N[C@@H](Cc1ccccc1)C(=O)N2 [Peptide S10i] (VFCTKSIPPICRL; disulfide 3-11; linker N-C via X1),Ki,[1]; K i [nM] (closed),44.8 ± 2.2 nM
same,Ki,[1]; K i [nM] (open),5.1 ± 0.4 nM
same,k H (closed) /k H (open),trypsin [2],4.2
same,k H [M^−1 s^−1] (closed),trypsin [2],2.2±0.3×10^−4 M^−1 s^−1
same,degradation in repeated cycles of reversible photoisomerization,[8],less than 30%
CC(=O)N[C@@H](C)C(=O)N1CCC[C@H]1C(=O)c1cc(C2=C(c3cc(C(=O)N[C@@H](C)C(N)=O)sc3C)CCC2)c(C)s1 [Ac‐Ala‐1‐Ala‐NH2],degradation in repeated cycles of reversible photoisomerization,"[8]; 15 cycles, UV 320-400 nm 167 mW/cm2 15 s, visible 570 nm 143 mW/cm2 60 s, 20 mM in deoxygenated water, 22°C, absorbance 575 nm",less than 30%
